# Experimental data published in patent US9067190B2, “Method for loading amphiphile particles with active agents” (CAMURUS AB, priority 2003, dated 2015).
# Tests used:
# [1] = Effect of heat treatment on carrier-bound fraction of octreotide (loading system 3); assay type: physicochemical; conditions: 200 μg/ml octreotide, 5% amphiphile analogue of loading system 3
# Experimental: Octreotide at a concentration of 200 μg/ml was added to 5% amphiphile analogues of loading system 3 (water content 95%). One set of samples were equilibrated at room temperature for 1 day, while another set was autoclaved at 125° C. for 20 minutes. The ocreotide concentration was determined by HPLC using a size exclusion column coupled to a UV detector.
# [2] = Higher loading of progesterone by heat treatment (GMO/oleic acid/Lutrol F127 cubic particles); assay type: physicochemical
# Experimental: Pre-formulations were prepared, including the fatty acid oleic acid, by the following method. • a) An initial melt was prepared containing GMO (85.5%), oleic acid (4.5%) and Lutrol F127 (10%). To 9 g of water under mechanical stirring was added 1 g of the molten mixture to form a coarse dispersion. • b) The coarse dispersion was homogenised with a microfluidiser at 345 bar. • c) The dispersion was heated to 120° C. for 20 minutes and cooled to room temperature.
# The steroid hormone progesterone was incubated with the cubic particles formed in steps a) to c), at room temperature. The equilibrium loading level was 3% by weight.
# The above method was repeated by the active agent progesterone was included in the aqueous phase prior to the homogenisation and heat treatment steps. The loading level was again examined and established to be 18 wt %. The effect upon the particle size distribution was minimal.
# The composition with 18 wt % progesterone generated above was stored at room temperature for 14 days.
SMILES,% bound octreotide ([1]; 1 day at room temperature) [%],% bound octreotide ([1]; After Autoclavation 20 min (125° C.)) [%],Effect upon the particle size distribution ([2]; heat treatment loading of progesterone),"Loading level ([2]; progesterone in aqueous phase prior to homogenisation and heat treatment (120° C., 20 minutes)) [wt %]",Equilibrium loading level ([2]; progesterone incubated with preformed cubic particles at room temperature) [% by weight]
C[C@@H](O)[C@@H]1NC(=O)[C@H](CCCCN)NC(=O)[C@@H](Cc2c[nH]c3ccccc23)NC(=O)[C@H](Cc2ccccc2)NC(=O)[C@@H](NC(=O)[C@H](N)Cc2ccccc2)CSSC[C@@H](C(=O)N[C@H](CO)[C@@H](C)O)NC1=O [octreotide],18.07,30.04,–,–,–
CC(=O)[C@H]1CC[C@H]2[C@@H]3CCC4=CC(=O)CC[C@]4(C)[C@H]3CC[C@]12C [progesterone],–,–,minimal,18,3
